Measured values as given in patent US12686666B2, “Triazine compound salt, crystal form thereof, and production method therefor” (TANABE PHARMA CORPORATION, priority 2020, dated 2026).
Marks after values point to notes of the source that are not given here.

Assays:
Format in all cases: physicochemical
[1] = Thermal stability evaluation (TG/DTA weight change); conditions: for Thermal stability, conclusion in words: did not show a significant weight change (Succinate Form A: at 25 to 148° C., melting point)
Experimental: (§1) Thermal stability was measured and evaluated by using a thermogravimetry/differential thermal analyzer TG/DTA7200 (SII NanoTechnology Inc.) under the following conditions. • Rate of temperature increase: 10° C./min • Range of temperature increase: 25 to 300° C. • Atmosphere: nitrogen 200 mL/min <Hygroscopicity or Deliquescency Evaluation>
as §1, with “Inc.) under the following conditions • Rate of temperature increase: 10° C./min • Range of temperature increase: 30 to 300° C. • Atmosphere: nitrogen 200 mL/min • or • using a TGA/DSC1 thermogravimetric analyzer (manufactured by Mettler Toledo, STARe system)” for “Inc.)”, “nitrogen 50” for “nitrogen 200”

[2] = Hygroscopicity or deliquescency evaluation (moisture adsorption, DVS); conditions: for Hygroscopicity or deliquescency, conclusion in words: from Table 5; for Hydration state (hydration stage in moisture adsorption): normal temperature, relative humidity of 10 to 95%
Experimental: Hygroscopicity or deliquescency was evaluated as follows by using a moisture adsorption measurement device DVS-1 or DVS-intrinsic (Surface Measurement Systems Limited). Each sample (about 5 mg) was placed into an aluminum plate of which the tare weight had been corrected in advance, and the plate was hung on the precision balance of said device to precisely measure the weight at the start of measurement. The humidity was changed in a stepwise manner in a chamber at 25° C., the weight change was recorded with time, and the equilibrium weight was calculated at each humidity. On the basis of the weight at a dried condition (0% RH), the weight change rate and hydration number at each humidity were calculated.
Hygroscopicity or deliquescency was evaluated as follows by using a moisture adsorption measurement device DVS-1 or DVS-intrinsic (Surface Measurement Systems Limited). Each sample was placed into a cell of which the tare weight had been corrected in advance, and the cell was hung on the precision balance of said device to precisely measure the weight at the start of measurement. The humidity was changed in a stepwise manner, the weight change was recorded with time, and the equilibrium weight was calculated at each humidity. On the basis of the weight of anhydride converted from the amount of water at a dried condition (0% RH) or at the start of measurement observed by an alternative method, the weight change rate at each humidity was calculated.

[3] = Chemical stability evaluation (storage 1 week, liquid chromatography peak area %); conditions: for Chemical stability, conclusion in words: did not show a significant increase of related substances
Experimental: Each about 1 mg of a sample stored at 60° C. (sealed) or 60° C./75% RH (open) for 1 week and an unstored sample (at the start of test) was dissolved into a mixed solution of acetonitrile/water (1:1) (5 mL) to obtain each sample solution. A test was carried out by liquid chromatographic method under the following conditions to measure each peak area (%).
Each peak area (%) was measured by using Waters ACQUITY UPLC under the following conditions. • Detector: Photodiode array (measurement wavelength: 239 nm) • Column: Waters ACQUITY BEH C18 (2.1 mm×100 mm, 1.7 μm) • Column temperature: constant temperature about 40° C. • Mobile phase: Solution A; water/TFA (2000:1), Solution B; Acetonitrile/TFA (2000:1) • Concentration gradient control: B % 2→100% (15 minutes) • Flow rate: 0.5 mL/min • Injection volume: 2 μL
Each sample was stored at 60° C. under a sealed condition and at 60° C. under 75% RH for 1 week, and an increase or decrease of related substance(s) after the storage was calculated by high-performance liquid chromatographic method on the basis of the area percentage of each peak. Also, the condition of each sample after the storage was observed.

[4] = Table 5, 25° C., relative to weight at 0% RH
[5] = Table 5, change of related substances (peak area %) vs start
[6] = Table 5, stored 1 week at 60° C. sealed, change of related substances (peak area %) vs start
[7] = Table 10, *1 with hydration stage
[8] = Table 10, increase or decrease of related substance(s), HPLC area percentage

SMILES	Thermal stability, conclusion in words [1]	Hygroscopicity or Deliquescency Weight change at 90% RH [2, 4]	Chemical stability 60° C., 75% RH, 1 week (open) [3, 5] [%]	Chemical stability 60° C. (sealed) [3, 6] [%]	Chemical stability, conclusion in words [3]	Hygroscopicity or deliquescency, conclusion in words [2]	also measured
CC(=O)NC1CCC(NC(=O)CN2CCN(c3nncc(-c4ccc(C)cc4)n3)CC2)CC1.O=C(O)CC(O)(CC(=O)O)C(=O)O (centres unmarked) [Citrate Form A crystal]	excellent thermal stability	7.6%	0.03	−0.03	excellent chemical stability	–	Thermal stability TG: weight change ([1]; 25° C.-melting point): 2.2%
CC(=O)NC1CCC(NC(=O)CN2CCN(c3nncc(-c4ccc(C)cc4)n3)CC2)CC1.O=C(O)CO (centres unmarked) [Glycolate Form A crystal]	–	1.9%	0.02	0.02	excellent chemical stability	excellent in the reduced hygroscopicity or deliquescency	Thermal stability TG: weight change ([1]; 70° C.-melting point): 14.4%
Br.Br.CC(=O)NC1CCC(NC(=O)CN2CCN(c3nncc(-c4ccc(C)cc4)n3)CC2)CC1 (centres unmarked) [Hydrobromide Form F crystal]	–	–	–	–	–	–	Thermal stability TG: weight change ([1]; Table 10, room temperature −200° C.): 4.8%; Hygroscopicity or Deliquescency Weight change at 90% RH [2, 7]: 3.5%*^1; Hydration state (hydration stage in moisture adsorption) [2]: hydrate; Chemical stability 60° C. (sealed) ([3]; Table 10, 1 week, increase or decrease of related substance(s), HPLC area percentage): 0.02%; Chemical stability 60° C., 75% RH, 1 week (open) [3, 8]: 0.12%
Br.CC(=O)NC1CCC(NC(=O)CN2CCN(c3nncc(-c4ccc(C)cc4)n3)CC2)CC1 (centres unmarked) [Hydrobromide Form N crystal]	–	–	–	–	–	–	Thermal stability TG: weight change ([1]; Table 10, 25-242° C.): 6.2%; Hygroscopicity or Deliquescency Weight change at 90% RH [2, 7]: 7.2%*^1; Hydration state (hydration stage in moisture adsorption) [2]: hydrate; Chemical stability 60° C., 75% RH, 1 week (open) [3, 8]: 0.00%
CC(=O)NC1CCC(NC(=O)CN2CCN(c3nncc(-c4ccc(C)cc4)n3)CC2)CC1.Cl (centres unmarked) [Hydrochloride Form A crystal]	excellent thermal stability	7.5%	−0.01	−0.01	excellent chemical stability	–	Thermal stability TG: weight change ([1]; 25-160° C.): 0.4%
CC(=O)NC1CCC(NC(=O)CN2CCN(c3nncc(-c4ccc(C)cc4)n3)CC2)CC1.Cl.Cl (centres unmarked) [Hydrochloride Form B crystal]	–	5.5%	–	–	–	–	–
CC(=O)NC1CCC(NC(=O)CN2CCN(c3nncc(-c4ccc(C)cc4)n3)CC2)CC1.O=C(O)CC(O)C(=O)O (centres unmarked) [Malate Form A crystal]	–	15%	–	–	–	–	Thermal stability TG: weight change ([1]; 25-280° C.): 21.2%
CC(=O)NC1CCC(NC(=O)CN2CCN(c3nncc(-c4ccc(C)cc4)n3)CC2)CC1.O=C(O)C=CC(=O)O (centres unmarked) [Maleate Form A crystal]	excellent thermal stability	22%	0.12	0.01	excellent chemical stability	–	Thermal stability TG: weight change ([1]; no temperature range printed): 0.0%
CC(=O)NC1CCC(NC(=O)CN2CCN(c3nncc(-c4ccc(C)cc4)n3)CC2)CC1.O=C(O)C=CC(=O)O (centres unmarked) [Maleate Form B crystal]	excellent thermal stability	7.5%	9.66	0.02	–	–	Thermal stability TG: weight change ([1]; 25-90° C.): 0.4%; Thermal stability TG: weight change ([1]; 120-260° C.): 17.6%; Condition of the sample after storage at 60° C., 75% RH, 1 week (open) ([3]; Table 5, remark in words under the value (glycolate: free body was observed at 60° C., 75% RH, 1 week)): (deliquescent)
CC(=O)NC1CCC(NC(=O)CN2CCN(c3nncc(-c4ccc(C)cc4)n3)CC2)CC1.CS(=O)(=O)O (centres unmarked) [Mesilate Form A crystal]	excellent thermal stability	17%	5.73	−0.13	–	–	Thermal stability TG: weight change ([1]; 120° C.): 0.8%
CC(=O)NC1CCC(NC(=O)CN2CCN(c3nncc(-c4ccc(C)cc4)n3)CC2)CC1.O=C(O)CCC(=O)O (centres unmarked) [Succinate Form A crystal]	excellent thermal stability	0.4%	0.02	0.04	excellent chemical stability	excellent in the reduced hygroscopicity or deliquescency	Thermal stability TG: weight change ([1]; 25-148° C.): 0.0%; Thermal stability TG: weight change ([1]; 148-210° C.): 23.7%
CC(=O)NC1CCC(NC(=O)CN2CCN(c3nncc(-c4ccc(C)cc4)n3)CC2)CC1.CC(=O)NC1CCC(NC(=O)CN2CCN(c3nncc(-c4ccc(C)cc4)n3)CC2)CC1.O=S(=O)(O)O.O=S(=O)(O)O.O=S(=O)(O)O.O=S(=O)(O)O.O=S(=O)(O)O (centres unmarked) [Sulfate Form A crystal]	–	8%	–	–	–	–	–
CC(=O)NC1CCC(NC(=O)CN2CCN(c3nncc(-c4ccc(C)cc4)n3)CC2)CC1.CC(=O)NC1CCC(NC(=O)CN2CCN(c3nncc(-c4ccc(C)cc4)n3)CC2)CC1.O.O.O.O.O=S(=O)(O)O.O=S(=O)(O)O.O=S(=O)(O)O.O=S(=O)(O)O.O=S(=O)(O)O (centres unmarked) [Sulfate Form B crystal]	excellent thermal stability	5%*^1	0.13	0	excellent chemical stability	excellent in the reduced hygroscopicity or deliquescency	Thermal stability TG: weight change ([1]; 25-93° C.): 4.3%; Thermal stability TG: weight change ([1]; 93-105° C.): 1.6%; Hydration state (hydration stage in moisture adsorption) [2]: hydrate
CC(=O)NC1CCC(NC(=O)CN2CCN(c3nncc(-c4ccc(C)cc4)n3)CC2)CC1.Cc1ccc(S(=O)(=O)O)cc1 (centres unmarked) [Tosilate Form B crystal]	excellent thermal stability	7.5%	−0.05	−0.07	excellent chemical stability	excellent in the reduced hygroscopicity or deliquescency	Thermal stability TG: weight change ([1]; 25° C.-melting point): 0.7%
CC(=O)NC1CCC(NC(=O)CN2CCN(c3nncc(-c4ccc(C)cc4)n3)CC2)CC1.Cc1ccc(S(=O)(=O)O)cc1.Cc1ccc(S(=O)(=O)O)cc1 (centres unmarked) [Tosilate Form C crystal]	excellent thermal stability	1.4%	0.39	0.04	excellent chemical stability	excellent in the reduced hygroscopicity or deliquescency	Thermal stability TG: weight change ([1]; 25° C.-melting point): 1.2%
